Assays:
Kasumi-1 cells = assay: Kasumi-1 cellular viability assay (ATP-Lite, 72 h); type: cell-based; conditions: Homo sapiens, ATP-Lite luminescence, % viability relative to DMSO
Experimental: Kasumi-1 cell line was purchased from ATCC (ATCC® CRL2724™). Cells were isolated from the peripheral blood of a child with acute myeloid leukemia (AML FAB M2) (in 2nd relapse after bone marrow transplantation) in 1989. Most cells are round. Kasumi-1 cells are observed to grow individually or in small clumps in suspension.
Kasumi-1 cells are cultured in RPMI-1640 (Gibco A10491-01) containing 10% heat-inactivated and 0.22 μm filtered FBS (Gibco 10270-106) at a density of 3E+5 and 3E+6 viable cell/mL following the certificate of analysis.
(§1) Cellular viability assay: Kasumi-1 cells were plated (50 μL) in 96-well cell culture microplates (PS, F-Bottom black, Cellstar, Greiner 655086) at final concentration of 15000 cells/well. The compounds of the invention were dissolved in DMSO, and a titration curve was generated at 1000× final concentration. Compounds were then diluted 500× in tissue culture medium (RPMI-1640, 10% FBS). Then 50 μl of test compound were added to Kasumi-1 cells in a final DMSO concentration of 0.1%, final volume 100 μl. A gas permeable sealing membrane was applied to the plate to prevent evaporation (Breathe-Easy sealing membrane, Sigma Z380059-1PK) and cells were incubated for 72 h at 37° C., 5% CO2, 80% RH. After 72h of treatment, the plates were taken out of the incubator and left for a few minutes at room temperature. 100 μl of the reconstituted reagent ATP-Lite One Step (Perkin Elmer, 6016739) was added to each well. The plates were shaken for 2 min at 700 rpm and placed in the dark for 10 minutes at room temperature before measurement of luminescence intensity with Envision instrument. The raw data were expressed in RLU. Results were expressed in % of viability relative to DMSO control and an IC50 was calculated based on the concentration-response profile of individual compounds.

Caov-3 cells = assay: Caov-3 cellular viability assay (ATP-Lite, 72 h); type: cell-based; conditions: Homo sapiens, ATP-Lite luminescence, % viability relative to DMSO
Experimental: Caov-3 cell line was purchased from ATCC (ATCC® HTB-75™). Cells were isolated from the ovary of a ovarian cancer patient.
Caov-3 cells are cultured in DMEM (ATCC 30-2002) containing 10% heat-inactivated and 0.22 μm filtered FBS (Gibco 10270-106). The cells are seeded at 2.5E+4cell/cm^2 within the recommended subcultivation ratio of 1:3 to 1:6, as stated on the certificate of analysis issues by the provider of the cells.
as §1, with “assay: Caov-3” for “assay: Kasumi-1”, “of 10000” for “of 15000”, “to Caov-3” for “to Kasumi-1”, “After 72 h” for “After 72h”, “6016739) were” for “6016739) was”

[1] = molecular target: T1, recombinant METTL3/METTL14 complex (Homo sapiens, UniProt Q86U44); assay: METTL3/14 Scintillation Proximity Assay (SPA), RNA methyltransferase activity; type: biochemical; conditions: 5.31 nM METTL3/14 complex, 250 nM RNA substrate, 1 μM 3H-SAM, 90 min; for compounds marked * best of the two separated forms
T1 construct: purchased Active Motif 311970; host or cells: Sf9 cells
T1 sequence (Q86U44 whole entry): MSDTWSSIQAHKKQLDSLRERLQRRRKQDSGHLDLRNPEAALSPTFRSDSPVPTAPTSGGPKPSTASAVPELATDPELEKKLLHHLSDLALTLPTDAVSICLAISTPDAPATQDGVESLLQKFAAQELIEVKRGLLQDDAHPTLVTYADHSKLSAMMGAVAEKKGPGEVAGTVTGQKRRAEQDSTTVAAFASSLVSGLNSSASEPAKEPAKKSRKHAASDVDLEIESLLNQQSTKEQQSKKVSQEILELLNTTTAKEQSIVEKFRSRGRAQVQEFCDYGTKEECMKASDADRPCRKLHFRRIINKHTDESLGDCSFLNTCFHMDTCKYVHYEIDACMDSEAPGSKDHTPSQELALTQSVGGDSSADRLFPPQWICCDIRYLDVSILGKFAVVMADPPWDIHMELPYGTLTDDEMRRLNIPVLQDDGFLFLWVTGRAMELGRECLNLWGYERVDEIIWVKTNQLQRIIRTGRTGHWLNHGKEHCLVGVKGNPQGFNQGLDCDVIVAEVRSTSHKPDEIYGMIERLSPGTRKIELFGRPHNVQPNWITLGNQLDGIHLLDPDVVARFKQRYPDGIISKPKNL
T1 sequence (Q9HCE5 whole entry partner): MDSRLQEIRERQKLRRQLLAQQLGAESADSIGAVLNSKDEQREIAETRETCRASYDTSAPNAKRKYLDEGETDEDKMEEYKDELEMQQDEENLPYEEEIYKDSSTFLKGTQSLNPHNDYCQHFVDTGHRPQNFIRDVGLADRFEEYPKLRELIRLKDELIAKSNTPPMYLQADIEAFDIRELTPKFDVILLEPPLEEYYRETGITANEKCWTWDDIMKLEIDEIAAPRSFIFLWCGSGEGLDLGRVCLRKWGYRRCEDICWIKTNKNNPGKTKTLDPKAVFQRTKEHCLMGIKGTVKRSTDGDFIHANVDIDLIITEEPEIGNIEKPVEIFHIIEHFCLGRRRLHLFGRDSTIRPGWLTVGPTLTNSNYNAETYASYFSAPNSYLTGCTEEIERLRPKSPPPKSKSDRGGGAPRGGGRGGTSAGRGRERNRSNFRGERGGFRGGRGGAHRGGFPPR

Compound	IC50 [1] [nM]	IC50 (Kasumi-1 cells) [nM]	IC50 (Caov-3 cells) [nM]
COc1cc(-c2cn(Cc3ccc(N4CCC[C@@H](NCC56CC(F)(C5)C6)C4)nn3)nn2)c2cn[nH]c2c1 [Compound 018, (R)-N-((3-fluorobicyclo[1.1.1]pentan-1-yl)methyl)-1-(6-((4-(6-methoxy-1H-indazol-4-yl)-1H-1,2,3-triazol-1-yl)methyl)pyridazin-3-yl)piperidin-3-amine]	≤ 50	500 to 5000	≤ 500
O=C(Nc1cc(=O)n2ccccc2n1)C1(c2ccc(N3CCC[C@@H](NCC45CC(F)(C4)C5)C3)cn2)COC1 [Compound 263, (R)-3-(5-(3-(((3-fluorobicyclo[1.1.1]pentan-1-yl)methyl)amino)piperidin-1-yl)pyridin-2-yl)-N-(4-oxo-4H-pyrido[1,2-a]pyrimidin-2-yl)oxetane-3-carboxamide]	≤ 50	≤ 500	≤ 500
CN(C)c1cncc(-c2cn(Cc3ccc(N4CCC[C@@H](NCC5CCC5)C4)cc3)nn2)c1 [Compound 140]	≤ 50	≤ 500	≤ 500
O=C(Nc1cc(=O)n2ccccc2n1)C1(c2ccc(N3CCC[C@@H](NCC4CC4)C3)nc2)COC1 [Compound 321, (R)-3-(6-(3-((cyclopropylmethyl)amino)piperidin-1-yl)pyridin-3-yl)-N-(4-oxo-4H-pyrido[1,2-a]pyrimidin-2-yl)oxetane-3-carboxamide]	≤ 50	500 to 5000	500 to 5000
COc1cncc(-c2cn(Cn3ccc(N4CCC[C@@H](NCC5CCC5)C4)cc3=O)nn2)c1 [Compound 063, (R)-4-(3-((cyclobutylmethyl)amino)piperidin-1-yl)-1-((4-(5-methoxypyridin-3-yl)-1H-1,2,3-triazol-1-yl)methyl)pyridin-2(1H)-one]	≤ 50	500 to 5000	500 to 5000
COc1cc(-c2cn(Cc3ccc(N4CCC[C@@H](NCC5CCC5)C4)nn3)nn2)c2cn[nH]c2c1 [Compound 001, (R)-N-(cyclobutylmethyl)-1-(6-((4-(6-methoxy-1H-indazol-4-yl)-1H-1,2,3-triazol-1-yl)methyl)pyridazin-3-yl)piperidin-3-amine]	≤ 50	500 to 5000	≤ 500
Clc1cc(-c2cn(Cc3ccc(N4CCC[C@@H](NCC5CCC5)C4)nn3)nn2)c2cn[nH]c2c1 [Compound 057, (R)-1-(6-((4-(6-chloro-1H-indazol-4-yl)-1H-1,2,3-triazol-1-yl)methyl)pyridazin-3-yl)-N-(cyclobutylmethyl)piperidin-3-amine]	≤ 50	500 to 5000	500 to 5000
FC(F)(F)C1(CN[C@@H]2CCCN(c3ccc(C4(n5cc(-c6cncc(C7CC7)c6)nn5)COC4)nc3)C2)CC1 [Compound 335, (R)-1-(6-(3-(4-(5-cyclopropylpyridin-3-yl)-1H-1,2,3-triazol-1-yl)oxetan-3-yl)pyridin-3-yl)-N-((1-(trifluoromethyl)cyclopropyl)methyl)piperidin-3-amine]	≤ 50	500 to 5000	≤ 500
O=C(NCc1ccc(N2CCC[C@@H](NCC3CCC3)C2)nn1)c1cc(=O)n2ccccc2n1 [Compound 002, (R)-N-((6-(3-((cyclobutylmethyl)amino)piperidin-1-yl)pyridazin-3-yl)methyl)-4-oxo-4H-pyrido[1,2-a]pyrimidine-2-carboxamide]	≤ 50	> 5000	> 5000
CC(c1ccc(N2CCC[C@@H](NCC3(C)CC3)C2)nn1)n1cnc(-c2cncc(N3CCCC3)n2)c1 (single isomer, unassigned) [Compound 348]	≤ 50	≤ 500	≤ 500
COc1cc(-c2cn(C(C)n3ccc(N4CCC[C@@H](NCC5CCC5)C4)cc3=O)cn2)c2cn[nH]c2c1 (single isomer, unassigned) [Compound 188]	≤ 50	500 to 5000	500 to 5000
COc1cc(-c2cn(Cc3ccc(N4CCC[C@@H](NCC5CC5)C4)nn3)nn2)c2cn[nH]c2c1 [Compound 015, (R)-N-(cyclopropylmethyl)-1-(6-((4-(6-methoxy-1H-indazol-4-yl)-1H-1,2,3-triazol-1-yl)methyl)pyridazin-3-yl)piperidin-3-amine]	≤ 50	500 to 5000	≤ 500
CC(n1cc(-c2cncc(N3CC[C@@H](F)C3)n2)nn1)n1ccc(N2CCC[C@@H](NCC3CC3)C2)cc1=O (single isomer, unassigned) [Compound 245]	≤ 50	≤ 500	≤ 500

More lines, main results first:

IC50 [1] [nM]	Compound	IC50 (Kasumi-1 cells) [nM]	IC50 (Caov-3 cells) [nM]
≤ 50	COc1cncc(-c2cn(Cc3ccc(N4CCC[C@@H](NCC5CCC5)C4)cn3)nn2)c1 [Compound 087, (R)-N-(cyclobutylmethyl)-1-(6-((4-(5-methoxypyridin-3-yl)-1H-1,2,3-triazol-1-yl)methyl)pyridin-3-yl)piperidin-3-amine]	500 to 5000	500 to 5000
≤ 50	c1cc(Cn2cc(-c3cncc(N4CCCC4)n3)nn2)ncc1N1CCC[C@@H](NCC2CCC2)C1 [Compound 282, (R)-N-(cyclobutylmethyl)-1-(6-((4-(6-(pyrrolidin-1-yl)pyrazin-2-yl)-1H-1,2,3-triazol-1-yl)methyl)pyridin-3-yl)piperidin-3-amine]	≤ 500	≤ 500
≤ 50	c1ccn(-c2cncc(-c3cn(C4(c5ccc(N6CCC[C@@H](NCC7CCC7)C6)cn5)COC4)nn3)n2)c1 [Compound 295, (R)-1-(6-(3-(4-(6-(1H-pyrrol-1-yl)pyrazin-2-yl)-1H-1,2,3-triazol-1-yl)oxetan-3-yl)pyridin-3-yl)-N-(cyclobutylmethyl)piperidin-3-amine]	≤ 500	500 to 5000
≤ 50	CC(n1cc(-c2cncc(N3CC[C@@H](C)C3)n2)nn1)n1ccc(N2CCC[C@@H](NCC3CC3)C2)cc1=O (single isomer, unassigned) [Compound 238]	≤ 500	≤ 500
≤ 50	COc1cncc(-c2cn(Cc3ccc(N4C[C@@H](F)C[C@@H](NCC5CCC5)C4)nn3)nn2)c1 [Compound 056, (3R,5S)-N-(cyclobutylmethyl)-5-fluoro-1-(6-((4-(5-methoxypyridin-3-yl)-1H-1,2,3-triazol-1-yl)methyl)pyridazin-3-yl)piperidin-3-amine]	> 5000	> 5000
≤ 50	CCC(NC(=O)c1cc(=O)n2ccccc2n1)c1ccc(N2CCC[C@@H](NCC3CCC3)C2)nn1 (single isomer, unassigned) [Compound 083]	> 5000	500 to 5000
≤ 50	CC(c1ccc(N2CCC[C@@H](NCC3CC3)C2)nn1)n1cc(-c2cncc(C3CC3)c2)nn1 (single isomer, unassigned) [Compound 317]	≤ 500	≤ 500
≤ 50	c1ncc(C2CC2)cc1-c1nnc(C2(c3ccc(N4CCC[C@@H](NCC5CC5)C4)cn3)COC2)s1 [Compound 352, (R)-N-(cyclopropylmethyl)-1-(6-(3-(5-(5-cyclopropylpyridin-3-yl)-1,3,4-thiadiazol-2-yl)oxetan-3-yl)pyridin-3-yl)piperidin-3-amine]	≤ 500	≤ 500

From patent US20250002475A1 (EPICS THERAPEUTICS, priority 2023, published 2025)
